Reference: patent US20180236080A1, “FAST-ACTING INSULIN COMPOSITION COMPRISING A CITRIC ACID SALT” (ADOCIA, priority 2017, published 2018)

Experiments:
[1] = target: hexameric form R6 of insulin aspart (Homo sapiens, UniProt P01308, P52D); conditions: insulin aspart 100 U/ml, FIG. 9 and FIG. 10
Text: The loss of the signal at 240 nm is related to a destabilization of the hexameric form R6 and the passage from R6 form to T6 form.
FIG. 9 describes the CD signal at 240 nm (deg·cm^2·dmol^−1) on the ordinate and on the abscissa:
Circular dichroism has been performed at 240 nm on the following compositions (FIG. 10):

[2] = target: hexameric R6 form of insulin lispro (Homo sapiens, UniProt P01308, K53P/P52K); conditions: insulin lispro 100 IU/ml, FIG. 5 and FIG. 6
Text: The loss of the signal at 240 nm is related to a destabilization of the hexameric R6 form and the passage from the R6 form to the T6 form.

[3] = at 4° C.; cited from earlier work
[4] = cited from earlier work

hexameric R6 form of insulin lispro, sequence (P01308 25-54 P52K/K53P limits assumed): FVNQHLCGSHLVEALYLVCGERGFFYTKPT
hexameric R6 form of insulin lispro, sequence (P01308 90-110 limits assumed): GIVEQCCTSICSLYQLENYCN
hexameric form R6 of insulin aspart, sequence (P01308 25-54 P52D limits assumed): as the sequence (P01308 25-54 P52K/K53P limits assumed) above, with K28D, P29K counted along it

Row | Molecule | Impact on the CD signal at 240 nm / R6 form of insulin aspart [1] | Impact on the CD signal at 240 nm / R6 form of insulin lispro [2] | Stability in the form of hexamers [3] [years] | Delay of action compared to a fast-acting insulin analog ([4]; dissociation of hexamers into dimers and monomers, Brange J. et al. 1999) [minutes] | Time after which a hypoglycemic effect occurs ([4]; injected subcutaneously) [min]
1 | O=C(O)CN(CCN(CC(=O)O)CC(=O)O)CC(=O)O [EDTA] | completely deconstructs the R6 form | completely deconstructs the R6 form |  |  | 
2 | human insulin |  |  | ~2 | ~20 | 60
